Measurements: patent US10023570B2 (Array BioPharma, Inc., priority 2015, dated 2018)
pIC50: −log10 of the molar value. Where two headings read alike, the source gives them in different places.

Key:
[1] = molecular target: Kif5b-RET fusion protein in HEK-293 cells (Homo sapiens, UniProt P07949); assay: cell-based
[2] = molecular target: human KDR protein in HEK-293 cells (Homo sapiens (Human), UniProt P35968); assay: KDR Cell Assay (phospho-KDR in HEK-293 cells expressing inducible KDR); type: cell-based; settings: pKDR Cell HEK 10% FBS IC50, HEK-293 cells expressing inducible KDR, VEGF stimulated
Chain of human KDR protein in HEK-293 cells (P35968 20-1356): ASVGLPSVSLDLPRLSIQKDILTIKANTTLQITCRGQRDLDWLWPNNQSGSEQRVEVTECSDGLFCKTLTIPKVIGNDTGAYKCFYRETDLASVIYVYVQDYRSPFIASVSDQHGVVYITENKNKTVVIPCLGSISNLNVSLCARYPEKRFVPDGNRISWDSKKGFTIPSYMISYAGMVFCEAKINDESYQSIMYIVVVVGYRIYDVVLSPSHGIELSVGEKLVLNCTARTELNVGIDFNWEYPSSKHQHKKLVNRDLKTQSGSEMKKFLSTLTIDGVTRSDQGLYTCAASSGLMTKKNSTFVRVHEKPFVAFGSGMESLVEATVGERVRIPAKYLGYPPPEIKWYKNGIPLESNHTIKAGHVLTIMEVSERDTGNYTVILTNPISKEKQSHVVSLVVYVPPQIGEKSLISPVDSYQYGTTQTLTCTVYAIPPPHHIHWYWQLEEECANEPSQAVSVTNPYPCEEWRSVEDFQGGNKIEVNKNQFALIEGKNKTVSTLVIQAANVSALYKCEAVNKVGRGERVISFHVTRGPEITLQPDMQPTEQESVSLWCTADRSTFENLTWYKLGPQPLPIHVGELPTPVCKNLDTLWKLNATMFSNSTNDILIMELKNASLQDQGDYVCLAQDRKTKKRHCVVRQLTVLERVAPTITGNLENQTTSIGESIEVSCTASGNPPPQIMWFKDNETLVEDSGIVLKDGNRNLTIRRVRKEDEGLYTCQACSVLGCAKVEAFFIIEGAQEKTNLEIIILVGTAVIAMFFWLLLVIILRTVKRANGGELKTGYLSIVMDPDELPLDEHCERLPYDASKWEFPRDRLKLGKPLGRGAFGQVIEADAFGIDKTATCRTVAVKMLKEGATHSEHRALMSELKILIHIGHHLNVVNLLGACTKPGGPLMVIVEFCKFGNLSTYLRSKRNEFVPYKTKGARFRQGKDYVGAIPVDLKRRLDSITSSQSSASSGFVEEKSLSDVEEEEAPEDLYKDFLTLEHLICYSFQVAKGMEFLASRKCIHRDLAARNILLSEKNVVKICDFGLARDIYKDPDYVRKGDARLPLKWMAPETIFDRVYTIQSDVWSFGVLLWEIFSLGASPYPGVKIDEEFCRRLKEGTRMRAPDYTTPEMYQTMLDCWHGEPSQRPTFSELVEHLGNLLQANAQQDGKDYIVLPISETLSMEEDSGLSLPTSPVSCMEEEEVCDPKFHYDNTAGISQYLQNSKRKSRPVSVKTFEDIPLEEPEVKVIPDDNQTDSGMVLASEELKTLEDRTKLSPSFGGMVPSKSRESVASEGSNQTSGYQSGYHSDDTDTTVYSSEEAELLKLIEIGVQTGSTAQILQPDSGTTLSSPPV
Procedure, shortened: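 HEK-293 cells with inducible human KDR were treated with compound for 1 h in DMEM (0.25% DMSO final), then lysed. Phospho-KDR was quantified by Meso Scale immunoassay, expressed as percent of control, and IC50 taken where a 4-parameter logistic fit crossed 50 POC.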

[3] = molecular target: N-terminal GST tagged recombinant human RET cytoplasmic domain (aa 658-end), wild type RET kinase (Homo sapiens (Human), UniProt P07949); assay: RET Enzyme Assay (HTRF KinEASE-TK), wild type RET; type: biochemical; settings: wild type RET, 1 mM ATP
Chain of N-terminal GST tagged recombinant human RET cytoplasmic domain (aa 658-end), wild type RET kinase (P07949 658-1114): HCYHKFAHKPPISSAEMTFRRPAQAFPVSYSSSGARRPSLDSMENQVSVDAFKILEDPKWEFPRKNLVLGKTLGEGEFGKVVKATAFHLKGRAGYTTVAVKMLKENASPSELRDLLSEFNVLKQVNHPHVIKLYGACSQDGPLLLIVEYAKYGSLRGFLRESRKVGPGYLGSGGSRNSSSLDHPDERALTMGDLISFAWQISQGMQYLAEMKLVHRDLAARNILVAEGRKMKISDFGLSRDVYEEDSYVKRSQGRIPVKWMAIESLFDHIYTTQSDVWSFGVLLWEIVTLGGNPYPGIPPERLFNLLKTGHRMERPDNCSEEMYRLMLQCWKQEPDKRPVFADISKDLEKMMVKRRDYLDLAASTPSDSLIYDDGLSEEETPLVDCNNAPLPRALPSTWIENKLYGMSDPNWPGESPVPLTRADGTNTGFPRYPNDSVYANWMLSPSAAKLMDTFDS

[4] = HEK-293 cells expressing Kif5b-RET, phospho-RET(Tyr1062), read-out: KIF5B-RET pTYR1062 Cell IC50
[5] = HEK-293 cells expressing Kif5b-RET, read-out: KIF5B-RET pTYR1062 Cell IC50
[6] = read-out: KIF5B-RET pTYR1062 Cell IC50

Chain of Kif5b-RET fusion protein in HEK-293 cells (P07949 29-1114 limits assumed): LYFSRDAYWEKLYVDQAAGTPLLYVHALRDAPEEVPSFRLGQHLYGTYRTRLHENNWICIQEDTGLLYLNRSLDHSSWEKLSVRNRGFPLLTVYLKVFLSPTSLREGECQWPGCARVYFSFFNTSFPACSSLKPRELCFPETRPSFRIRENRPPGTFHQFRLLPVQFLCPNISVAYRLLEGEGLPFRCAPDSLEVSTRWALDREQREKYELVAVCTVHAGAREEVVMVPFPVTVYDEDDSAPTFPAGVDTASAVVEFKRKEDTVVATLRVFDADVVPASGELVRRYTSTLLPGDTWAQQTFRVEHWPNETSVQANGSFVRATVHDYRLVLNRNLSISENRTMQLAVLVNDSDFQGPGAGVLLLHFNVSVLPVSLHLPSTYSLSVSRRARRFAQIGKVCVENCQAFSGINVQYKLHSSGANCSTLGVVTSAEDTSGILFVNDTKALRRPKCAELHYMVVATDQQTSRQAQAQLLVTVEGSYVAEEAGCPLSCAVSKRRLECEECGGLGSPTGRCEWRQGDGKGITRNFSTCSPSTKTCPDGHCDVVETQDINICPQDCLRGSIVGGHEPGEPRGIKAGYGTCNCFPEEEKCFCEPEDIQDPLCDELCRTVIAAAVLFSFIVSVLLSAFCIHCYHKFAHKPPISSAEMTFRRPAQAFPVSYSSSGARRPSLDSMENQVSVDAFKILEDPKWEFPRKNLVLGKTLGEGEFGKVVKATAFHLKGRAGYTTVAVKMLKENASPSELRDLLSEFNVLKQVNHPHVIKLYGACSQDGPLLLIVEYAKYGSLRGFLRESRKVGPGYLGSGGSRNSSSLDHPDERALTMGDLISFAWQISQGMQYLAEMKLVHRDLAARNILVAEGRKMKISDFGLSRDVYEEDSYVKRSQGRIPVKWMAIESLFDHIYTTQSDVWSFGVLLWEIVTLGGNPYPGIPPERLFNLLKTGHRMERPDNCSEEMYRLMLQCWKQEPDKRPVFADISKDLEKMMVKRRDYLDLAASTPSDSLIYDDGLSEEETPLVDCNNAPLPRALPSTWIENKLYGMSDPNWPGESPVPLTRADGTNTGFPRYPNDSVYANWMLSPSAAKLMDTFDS

| SMILES | pIC50 [1, 4] | pIC50 ([2]; 10% FBS) | pIC50 [3] | pIC50 [1, 5] | pIC50 [2] | pIC50 [1] | pIC50 [1, 6] |
| --- | --- | --- | --- | --- | --- | --- | --- |
| Cn1cc(-c2cc(-c3ccc(N4CCN(CCOC(C)(C)C)CC4)nc3)c3c(C#N)cnn3c2)cn1 [Example 420, 4-(6-(4-(2-(tert-butoxy)ethyl)piperazin-1-yl)pyridine-3-yl)-6-(1-methyl-1H-pyrazol-4-yl)pyrazolo[1,5-a]pyridine-3-carbonitrile] | – | – | 7.96 | 8.25 | 6.10 | – | – |
| COc1ccc(CN2CCN(c3ccc(-c4cc(-c5cnn(C)c5)cn5ncc(C#N)c45)cn3)CC2)nc1 [Example 458, 4-(6-(4-((5-methoxypyridin-2-yl)methyl)piperazin-1-yl)pyridin-3-yl)-6-(1-methyl-1H-pyrazol-4-yl)pyrazolo[1,5-a]pyridine-3-carbonitrile] | – | – | 8.16 | – | 6.49 | 8.62 | – |
| COC[C@H](O)CN1CCN(c2ccc(-c3cc(-c4cnn(C)c4)cn4ncc(C#N)c34)cn2)CC1 [Example 151, (R)-4-(6-(4-(2-hydroxy-3-methoxypropyl)piperazin-1-yl)pyridin-3-yl)-6-(1-methyl-1H-pyrazol-4-yl)pyrazolo[1,5-a]pyridine-3-carbonitrile] | 7.15 | 5.84 | 7.36 | – | – | – | – |
| CCC1(C(=O)NC(C)C)CCN(c2ccc(-c3cc(-c4cn(C)nc4C)cn4ncc(C#N)c34)cn2)CC1 [Example 599, 1-(5-(3-cyano-6-(1,3-dimethyl-1H-pyrazol-4-yl)pyrazolo[1,5-a]pyridin-4-yl)pyridin-2-yl)-4-ethyl-N-isopropylpiperidine-4-carboxamide] | – | – | 7.56 | 7.78 | 5.31 | – | – |
| Cn1cc(-c2cc(-c3ccc(N4CCN(C(=O)C(C)(F)F)CC4)nc3)c3c(C#N)cnn3c2)cn1 [Example 59, 4-(6-(4-(2,2-difluoropropanoyl)piperazin-1-yl)pyridin-3-yl)-6-(1-methyl-1H-pyrazol-4-yl)pyrazolo[1,5-a]pyridine-3-carbonitrile] | 7.58 | 6.26 | 7.79 | – | – | – | – |
| CC(C)N(CCO)C(=O)C1CCN(c2ccc(-c3cc(-c4cnn(C)c4)cn4ncc(C#N)c34)cn2)CC1 [Example 561, 1-(5-(3-cyano-6-(1-methyl-1H-pyrazol-4-yl)pyrazolo[1,5-a]pyridin-4-yl)pyridin-2-yl)-N-(2-hydroxyethyl)-N-isopropylpiperidine-4-carboxamide 2,2,2-trifluoroacetate] | – | – | 7.62 | – | 5.76 | 7.43 | – |
| Cn1cc(-c2cc(-c3ccc(N4CCN(C(=O)C(C)(C)C)CC4)nc3)c3c(C#N)cnn3c2)cn1 [Example 34, 6-(1-methyl-1H-pyrazol-4-yl)-4-(6-(4-pivaloylpiperazin-1-yl)pyridin-3-yl)pyrazolo[1,5-a]pyridine-3-carbonitrile 2,2,2-trifluoroacetate] | – | 5.52 | 7.46 | – | – | – | 7.21 |
| COCC(=O)N1CCN(c2ccc(-c3cc(-c4cnn(C)c4)cn4ncc(C#N)c34)cn2)CC1 [Example 40, 4-(6-(4-(2-methoxyacetyl)piperazin-1-yl)pyridin-3-yl)-6-(1-methyl-1H-pyrazol-4-yl)pyrazolo[1,5-a]pyridine-3-carbonitrile 2,2,2-trifluoroacetate] | – | 6.65 | 7.86 | – | – | – | 7.95 |
| CN(C)C(=O)CCN1CCN(c2ccc(-c3cc(-c4cnn(C)c4)cn4ncc(C#N)c34)cn2)CC1 [Example 146, 3-(4-(5-(3-cyano-6-(1-methyl-1H-pyrazol-4-yl)pyrazolo[1,5-a]pyridin-4-yl)pyridin-2-yl)piperazin-1-yl)-N,N-dimethylpropanamide 2,2,2-trifluoroacetate] | – | 6.13 | 7.91 | – | – | – | 7.54 |

The next lines start with results.

| pIC50 [1, 4] | pIC50 ([2]; 10% FBS) | pIC50 [3] | pIC50 [1, 5] | SMILES | pIC50 [2] | pIC50 [1] | pIC50 [1, 6] |
| --- | --- | --- | --- | --- | --- | --- | --- |
| 8.19 | 6.11 | 8.12 | – | CC(C)[C@@H](O)C(=O)N1CCN(c2ccc(-c3cc(-c4cnn(C)c4)cn4ncc(C#N)c34)cn2)CC1 [Example 85, (R)-4-(6-(4-(2-hydroxy-3-methylbutanoyl)piperazin-1-yl)pyridin-3-yl)-6-(1-methyl-1H-pyrazol-4-yl)pyrazolo[1,5-a]pyridine-3-carbonitrile] | – | – | – |
| 7.51 | 6.26 | 7.74 | – | Cn1cc(-c2cc(-c3ccc(N4CCC(NC(=O)C(C)(C)O)CC4)nc3)c3c(C#N)cnn3c2)cn1 [Example 179, N-(1-(5-(3-cyano-6-(1-methyl-1H-pyrazol-4-yl)pyrazolo[1,5-a]pyridin-4-yl)pyridin-2-yl)piperidin-4-yl)-2-hydroxy-2-methylpropanamide] | – | – | – |
| 7.80 | 6.08 | 8.21 | – | CCONC(=O)C1CCN(c2ccc(-c3cc(-c4cnn(C)c4)cn4ncc(C#N)c34)cn2)CC1 [Example 237, 1-(5-(3-cyano-6-(1-methyl-1H-pyrazol-4-yl)pyrazolo[1,5-a]pyridin-4-yl)pyridin-2-yl)-N-ethoxypiperidine-4-carboxamide] | – | – | – |
| 7.31 | 5.98 | 7.90 | – | C[C@H](O)CC(=O)N1CCN(c2ccc(-c3cc(-c4cnn(C)c4)cn4ncc(C#N)c34)cn2)CC1 [Example 57, (S)-4-(6-(4-(3-hydroxybutanoyl)piperazin-1-yl)pyridin-3-yl)-6-(1-methyl-1H-pyrazol-4-yl)pyrazolo[1,5-a]pyridine-3-carbonitrile] | – | – | – |
| 6.83 | 5.63 | 7.51 | – | Cn1cc(-c2cc(-c3ccc(N4CCN(C(=O)CC(C)(C)C)CC4)nc3)c3c(Cl)cnn3c2)cn1 [Example 331, 1-(4-(5-(3-chloro-6-(1-methyl-1H-pyrazol-4-yl)pyrazolo[1,5-a]pyridin-4-yl)pyridin-2-yl)piperazin-1-yl)-3,3-dimethylbutan-1-one] | – | – | – |
| 8.24 | 6.04 | 8.06 | – | COC(C)CNC(=O)C1CCN(c2ccc(-c3cc(-c4cnn(C)c4)cn4ncc(C#N)c34)cn2)CC1 (stereo not drawn) [Example 239, 1-(5-(3-cyano-6-(1-methyl-1H-pyrazol-4-yl)pyrazolo[1,5-a]pyridin-4-yl)pyridin-2-yl)-N-(2-methoxypropyl) piperidine-4-carboxamide] | – | – | – |
| 8.21 | 6.33 | 8.15 | – | Cn1cc(-c2cc(-c3ccc(N4CCC(C)(C(=O)NCCC(F)(F)F)CC4)nc3)c3c(C#N)cnn3c2)cn1 [Example 250, 1-(5-(3-cyano-6-(1-methyl-1H-pyrazol-4-yl)pyrazolo[1,5-a]pyridin-4-yl)pyridin-2-yl)-4-methyl-N-(3,3,3-trifluoropropyl)piperidine-4-carboxamide] | – | – | – |
| 7.88 | 6.69 | 8.13 | – | Cn1cc(-c2cc(-c3ccc(N4CCN(C=O)CC4)nc3)c3c(C#N)cnn3c2)cn1 [Example 141, 4-(6-(4-formylpiperazin-1-yl)pyridin-3-yl)-6-(1-methyl-1H-pyrazol-4-yl)pyrazolo[1,5-a]pyridine-3-carbonitrile] | – | – | – |
| – | – | 7.67 | 7.74 | CO[C@H](C)CN1CCN(c2ccc(-c3cc(-c4cnn(C)c4)cn4ncc(C#N)c34)cn2)CC1 [Example 412, (R)-4-(6-(4-(2-methoxypropyl)piperazin-1-yl)pyridin-3-yl)-6-(1-methyl-1H-pyrazol-4-yl)pyrazolo[1,5-a]pyridine-3-carbonitrile] | 5.67 | – | – |
